Holding throughout (assay type): cell-based
The target in experiment [1] is T1, Kv1.1/Kv1.1-E283K/Kv1.2 channels (Homo sapiens, UniProt Q09470, E283K).
T1 construct: expressed in transfected cells; host or cells: Xenopus laevis oocytes co-injected 1:1:2 Kv1.1:Kv1.1-E283K:Kv1.2 cRNA
As to the kind of experiment: TEVC of oocytes co-injected 1:1:2 Kv1.1:Kv1.1-E283K:Kv1.2 cRNA. The conditions noted are these: even at 0.1 µM. From the text:
(§1) Kv1.1 α subunits form heteromeric tetramers with other Kv1 subfamily α subunits, including Kv1.2, in the […] region of axons and some terminals, in the hippocampus (perforant input from entorhinal cortex, mossy fiber projections from granule cells to CA3, and CA3 axon collaterals)[7]–[11]. We therefore tested effects of gallic acid on Kv1.1/Kv1.2 heteromers generated in oocytes by co-injection of 1:1:2 parts Kv1.1:Kv1.1-E283K:Kv1.2 or Kv1.1:Kv1.1-L155P:Kv1.2 cRNA to approximate the Kv1.1/Kv1.2 heteromeric channel composition in EA1 patients heterozygous for either mutant KCNA1 allele. […]
(§2) We performed TEVC at room temperature using an OC-725C amplifier (Warner Instruments, Hamden, CT) and pClamp10 software (Molecular Devices, Sunnyvale, CA) 2 days after cRNA injection as described in the section above. […] We recorded currents in response to voltage pulses between −80 mV and +40 mV at 10 or 20 mV intervals from a holding potential of −80 mV, to yield current-voltage relationships and examine activation kinetics. To calculate the voltage dependence of activation (V0.5), tail currents were recorded at a voltage pulse of −50 mV immediately following prepulse voltages between −80 mV and +40 mV. We analyzed data using Clampfit (Molecular Devices) and Graphpad Prism software (GraphPad, San Diego, CA, USA), stating values as mean ± SEM. […]

Experiment [2] deals with T2, Kv1.1/Kv1.1-L155P/Kv1.2 channels (Homo sapiens, UniProt Q09470, L155P).
T2 construct: expressed in transfected cells; host or cells: Xenopus laevis oocytes co-injected 1:1:2 Kv1.1:Kv1.1-L155P:Kv1.2 cRNA
T2 sequence (Q09470 whole entry, stated change not applied): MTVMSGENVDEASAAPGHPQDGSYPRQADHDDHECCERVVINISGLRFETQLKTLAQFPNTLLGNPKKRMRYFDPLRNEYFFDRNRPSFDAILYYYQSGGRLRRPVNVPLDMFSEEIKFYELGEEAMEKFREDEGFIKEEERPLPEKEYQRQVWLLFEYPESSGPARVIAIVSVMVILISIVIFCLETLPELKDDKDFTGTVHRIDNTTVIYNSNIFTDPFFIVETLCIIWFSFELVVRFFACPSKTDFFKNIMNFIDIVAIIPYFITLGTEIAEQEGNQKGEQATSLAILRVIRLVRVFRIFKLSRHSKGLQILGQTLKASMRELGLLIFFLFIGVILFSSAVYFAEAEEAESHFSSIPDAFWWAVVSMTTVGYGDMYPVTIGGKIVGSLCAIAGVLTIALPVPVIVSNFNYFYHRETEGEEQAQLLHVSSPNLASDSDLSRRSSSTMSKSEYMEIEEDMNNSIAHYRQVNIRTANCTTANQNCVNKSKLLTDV
T2 sequence (Q09470 whole entry L155P): as the sequence (Q09470 whole entry, stated change not applied) above, with L155P counted along it
T2 sequence (P16389 whole entry partner): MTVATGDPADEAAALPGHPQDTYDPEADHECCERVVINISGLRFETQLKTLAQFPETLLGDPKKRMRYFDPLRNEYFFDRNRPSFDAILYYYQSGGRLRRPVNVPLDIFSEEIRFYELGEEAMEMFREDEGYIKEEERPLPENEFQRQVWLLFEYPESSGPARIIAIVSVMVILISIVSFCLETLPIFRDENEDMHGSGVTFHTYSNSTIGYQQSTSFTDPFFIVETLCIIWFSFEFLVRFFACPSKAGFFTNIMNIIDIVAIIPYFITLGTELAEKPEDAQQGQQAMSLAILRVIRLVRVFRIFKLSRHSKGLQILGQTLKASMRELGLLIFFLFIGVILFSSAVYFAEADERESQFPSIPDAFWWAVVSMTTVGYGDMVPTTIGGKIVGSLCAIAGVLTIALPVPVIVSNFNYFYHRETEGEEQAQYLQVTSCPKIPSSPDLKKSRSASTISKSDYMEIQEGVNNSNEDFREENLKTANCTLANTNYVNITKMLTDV
The experiment in a line: TEVC of oocytes co-injected 1:1:2 Kv1.1:Kv1.1-L155P:Kv1.2 cRNA. The conditions noted are these: at 0.1 µM and higher.
Description: as §1, §2

The target in experiment [3] is T3, Kv1.1-I182S, E192I, K195N (Kv1.1–3 M) (Homo sapiens, UniProt Q09470, E191I/I183S/K196N).
T3 construct: expressed in transfected cells; host or cells: Xenopus laevis oocytes
T3 sequence (Q09470 whole entry I183S/E191I/K196N): as the sequence (Q09470 whole entry, stated change not applied) above, with I183S, E191I, K196N counted along it
The experiment in a line: TEVC of oocytes expressing Kv1.1-3M.
Description: The functional data support a Kv1.1 gallic acid-binding site similar to that predicted by the MD simulation (Fig. 10f; Supplementary Movie 1).
Wild-type and mutant Kv1 cDNAs were generated (Genscript, Piscataway, NJ) in the pTLNx expression vector. As previously described, we generated cRNA transcripts encoding human Kv1.1 (wild-type and mutant) and Kv1.2, by in vitro transcription using the mMessage mMachine kit (Thermo Fisher Scientific), after vector linearization, from cDNA sub-cloned into plasmids (pTLNx) incorporating Xenopus laevis β-globin 5’ and 3’ UTRs flanking the coding region to enhance translation and cRNA stability. We injected defolliculated stage V and VI Xenopus laevis oocytes (Xenoocyte, Dexter, MI, US) with Kv1 cRNAs (1–5 ng). We incubated the oocytes at 16 °C in ND96 oocyte storage solution containing penicillin and streptomycin, with daily washing, for 2 days prior to two-electrode voltage-clamp (TEVC) recording.
as §2, with “above. For recording, oocytes we placed in a small-volume oocyte bath (Warner) and viewed with a dissection microscope. We sourced chemicals from Sigma. We studied effects of plant extracts and of compounds, solubilized directly in bath solution (in mM): 96 NaCl, 4 KCl, 1 MgCl2, 1 CaCl2, 10 HEPES (pH 7.6).” for “above.”

For experiment [4], the target named is T4, Kv1.1/Kv1.1-G311D channels (Homo sapiens, UniProt Q09470, G311D).
T4 construct: expressed in transfected cells; host or cells: Xenopus laevis oocytes co-injected with 50/50 wild-type/mutant cRNA
T4 sequence (Q09470 whole entry, stated change not applied): as the sequence (Q09470 whole entry, stated change not applied) above
T4 sequence (Q09470 whole entry G311D): as the sequence (Q09470 whole entry, stated change not applied) above, with G311D counted along it
As to the kind of experiment: TEVC of oocytes co-injected with 50/50 wild-type/G311D Kv1.1 cRNA. The conditions noted are these: for effect on channel activity: compound 1 µM. Here is the method: We next tested effects on channels generated by co-injection of 50/50 wild-type/mutant Kv1.1 cRNA. Strikingly, gallic acid (1 µM) was able to hyperpolarize (by −15.5 ± 0.5 mV; n = 4; P < 0.0001) the V0.5 act of Kv1.1/Kv1.1-E283K channels, restoring voltage dependence typical of wild-type Kv1.1 (Fig. 7a–c), also inducing a −14 ± 0.7 mV hyperpolarization (n = 4; P = 0.0005) in EM of oocytes expressing Kv1.1/Kv1.1-E283K (Fig. 7d). […] Because of this hint at activity improvement in L155P channels we also applied higher concentrations (10 and 100 µM) of gallic acid, which produced a more robust (−12.5 ± 0.6 mV and −14.1 ± 0.6 mV, respectively) hyperpolarization of Kv1.1/Kv1.1-L155P V0.5 act (Fig. 8b, c) and hyperpolarized EM by −14.0 ± 0.6 mV and −15.2 ± 0.7 mV, respectively (Fig. 8d).
Wild-type and mutant Kv1 cDNAs were generated (Genscript, Piscataway, NJ) in the pTLNx expression vector. As previously described, we generated cRNA transcripts encoding human Kv1.1 (wild-type and mutant) and Kv1.2, by in vitro transcription using the mMessage mMachine kit (Thermo Fisher Scientific), after vector linearization, from cDNA sub-cloned into plasmids (pTLNx) incorporating Xenopus laevis β-globin 5’ and 3’ UTRs flanking the coding region to enhance translation and cRNA stability. […]
as §2

The target of experiment [5] is T5, Kv1.1-E283K channels (Homo sapiens, UniProt Q09470, E283K).
T5 construct: expressed in transfected cells; host or cells: Xenopus laevis oocytes
T5 sequence (Q09470 whole entry E283K): as the sequence (Q09470 whole entry, stated change not applied) above, with E283K counted along it
As to the kind of experiment: TEVC of oocytes injected with 100% Kv1.1-E283K cRNA. The conditions noted are these: for EC50: biphasic dose response.
Description: We performed TEVC at room temperature using an OC-725C amplifier (Warner Instruments, Hamden, CT) and pClamp10 software (Molecular Devices, Sunnyvale, CA) 2 days after cRNA injection as described in the section above. For recording, oocytes we placed in a small-volume oocyte bath (Warner) and viewed with a dissection microscope. We sourced chemicals from Sigma. We studied effects of plant extracts and of compounds, solubilized directly in bath solution (in mM): 96 NaCl, 4 KCl, 1 MgCl2, 1 CaCl2, 10 HEPES (pH 7.6). We introduced extracts or compounds into the oocyte recording bath by gravity perfusion at a constant flow of 1 ml per minute for 3 min prior to recording. Pipettes were of 1–2 MΩ resistance when filled with 3 M KCl. We recorded currents in response to voltage pulses between −80 mV and +40 mV at 10 or 20 mV intervals from a holding potential of −80 mV, to yield current-voltage relationships and examine activation kinetics. To calculate the voltage dependence of activation (V0.5), tail currents were recorded at a voltage pulse of −50 mV immediately following prepulse voltages between −80 mV and +40 mV. We analyzed data using Clampfit (Molecular Devices) and Graphpad Prism software (GraphPad, San Diego, CA, USA), stating values as mean ± SEM. We plotted raw or normalized tail currents vs. prepulse voltage and fitted with a single Boltzmann function:1 g=(A1−A2)/1+exp[V1/2−V/Vs]y+A2 where g is the normalized tail conductance, A1 is the initial value at -∞, A2 is the final value at +∞, V1/2 is the half-maximal voltage of activation and Vs the slope factor.

Where [6] appears, read: -20 mV, Figure 6 table, head 1 µM Tannic acid, footnote bladderwrack kelp.

Where two headings read alike, the source gives them in different places.

T1 sequence (Q09470 whole entry, stated change not applied): as the sequence (Q09470 whole entry, stated change not applied) above
T1 sequence (Q09470 whole entry E283K): as the sequence (Q09470 whole entry, stated change not applied) above, with E283K counted along it
T1 sequence (P16389 whole entry partner): as the sequence (P16389 whole entry partner) above

Regarding `O=C(O)c1cc(O)c(O)c(O)c1` [gallic acid], the “rescue of channel activity” value in experiment [1] and in experiment [2] was “highly effective at rescuing” in each case. The EC50 in experiment [3] worked out at 345 ± 38 nM. Also, the “EC50 for peak current augmentation” value in experiment [3] (at −40 mV) is “not measurable”. In addition, the “maximal peak current augmentation compared to Kv1.1” value in experiment [3] (at −40 mV) was “reduced fivefold”. Moreover, the entries for the “effect on channel activity” value in experiment [4] and in experiment [5] (compound 1 µM) were “negligible” and “only very minor functional improvements”, respectively. In experiment [4] (in presence of 1 µM compound), the EM is reported as -47.00 ± 2.56 mV.

Regarding tannic acid, the “effect on channel activity” value in experiment [4] is reported as “minimal”. The TauAct in experiment [5] (0 mV, 1 µM, Figure 9 table) was 15.70 ± 1.40 ms; in experiment [5] (0 mV, Figure 6 table, head 1 µM Tannic acid, footnote bladderwrack kelp) it was 21.12 ± 4.35 ms; in experiment [5] (+10 mV, 1 µM, Figure 9 table), 12.94 ± 1.05 ms; in experiment [5] (+10 mV, Figure 6 table, head 1 µM Tannic acid, footnote bladderwrack kelp) it was 17.43 ± 3.97 ms; in experiment [5] (+20 mV, 1 µM, Figure 9 table), 11.30 ± 0.89 ms; in experiment [5] (+20 mV, Figure 6 table, head 1 µM Tannic acid, footnote bladderwrack kelp), 12.72 ± 2.85 ms. The TauAct in experiment [5] (+30 mV, 1 µM, Figure 9 table) is listed as 10.16 ± 0.83 ms; in experiment [5] (+30 mV, Figure 6 table, head 1 µM Tannic acid, footnote bladderwrack kelp), 10.63 ± 2.79 ms; in experiment [5] (+40 mV, 1 µM, Figure 9 table), 9.46 ± 0.83 ms; in experiment [5] (+40 mV, Figure 6 table, head 1 µM Tannic acid, footnote bladderwrack kelp), 10.04 ± 2.65 ms; in experiment [5] (-10 mV, 1 µM, Figure 9 table), 20.71 ± 2.35 ms; in experiment [5] (-10 mV, Figure 6 table, head 1 µM Tannic acid, footnote bladderwrack kelp), 27.06 ± 7.08 ms. Moreover, the TauAct in experiment [5] (-20 mV, 1 µM, Figure 9 table) came out at 31.31 ± 2.98 ms; in experiment [5] (setting [6]), 41.32 ± 8.47 ms. For the same compound, the “Peak current at -40 mV” value in experiment [5] (0.1 µM) turned out to be 0.02 ± 0.01 µA; in experiment [5] (1 µM) it was 0.02 ± 0.01 µA; in experiment [5] (10 µM), 0.02 ± 0.01 µA; in experiment [5] (30 µM), 0.02 ± 0.01 µA; in experiment [5] (100 µM) it was 0.03 ± 0.01 µA. For the same compound, in experiment [5] (1 µM), the “shift in the EM” value is given as about −20 mV. The “shift of V0.5 activation” value in experiment [5] (1 µM) is on record as −13 ± 0.26 mV. Further, in experiment [5] (1 µM compound), the “Current-fold change -30 mV” value was 4.69 ± 1.69. In addition, the increase of activity in experiment [5] (1 µM, at −40 to −20 mV) was at most 20 fold. The TauDeact in experiment [5] (setting [6]) turned out to be 0.87 ± 0.36 ms; in experiment [5] (-30 mV, Figure 6 table, head 1 µM Tannic acid, footnote bladderwrack kelp) it was 0.79 ± 0.32 ms; in experiment [5] (-40 mV, Figure 6 table, head 1 µM Tannic acid, footnote bladderwrack kelp), 0.88 ± 0.36 ms; in experiment [5] (-50 mV, Figure 6 table, head 1 µM Tannic acid, footnote bladderwrack kelp) it was 1.04 ± 0.44 ms; in experiment [5] (-60 mV, Figure 6 table, head 1 µM Tannic acid, footnote bladderwrack kelp) it was 1.23 ± 0.52 ms; in experiment [5] (-70 mV, Figure 6 table, head 1 µM Tannic acid, footnote bladderwrack kelp), 1.38 ± 0.56 ms. For the same compound, the TauDeact in experiment [5] (-80 mV, Figure 6 table, head 1 µM Tannic acid, footnote bladderwrack kelp) is 1.50 ± 0.57 ms. In addition, the EC50 in experiment [5] (read-out: EC50 for effects on EM, first component) is 1.1 ± 0.9 nM; in experiment [5] (read-out: EC50 for effects on EM, second component), 10000 ± 400 nM; in experiment [5] (from the increase in relative tail current at −40 mV, read-out: EC50, higher sensitivity component) it was 3.7 ± 2.6 nM. Besides, the EM in experiment [5] (in presence of 1 µM compound) is on record as -44.83 ± 0.14 mV. The Slope in experiment [5] (in presence of 1 µM compound) is given as 8.70 ± 1.19 mV. In experiment [5] (in presence of 1 µM compound), the “V0.5 Normalized tail current” value was -22.75 ± 1.34 mV.

In general, EC50 refers to the concentration giving half of the maximal effect.
